# Measured values as given in US10512634B2, “Benzimidazole derivates useful as inhibitors of mammalian histone deacetylase activity” (KANCERA AB, priority 2015, dated 2019).
# Structures can show the parent of a compound that is named as a salt. Where two headings read alike, the source gives them in different places.
# Tests used:
# HDAC6 = HDAC6 (Homo sapiens (Human), UniProt Q9UBN7); experiment: HDAC in vitro enzymatic assay (fluorescence); format: biochemical; conditions: top concentration 2 μM
# Procedure: Biological Tests Method for Measurement of Enzymatic Activity of HDACs Materials & Methods
# All Examples were tested in HDAC1, 2, 3, 6 and 8 in vitro enzymatic assays. The assay principle is well known (Hauser et al. 2009, Bradner et al. 2010) and all necessary reagents like enzymes, substrates, developer and reference compounds are commercially available (see e.g. BPS Biosciences http://www.bpsbioscience.com/). A series of dilutions of the compounds were prepared with a top concentration of 200 μM (2 μM for HDAC6). The enzymatic reactions were conducted in a mixture containing assay buffer, bovine serum albumin, HDAC substrate, and a test compound. After enzymatic reaction, developer was added and after an additional incubation time, fluorescence intensity was measured at an excitation wavelength of 360 nm and an emission wavelength of 460 nm. A selection of the Examples were tested in a full HDAC panel containing HDAC1, 2, 3, 4, 5, 6, 7, 8, 9, 10 and 11 in vitro enzymatic assays. The tests were performed as above except that a series of dilutions of the compounds were prepared with a top concentration of 10 μM for all HDACs.
# HDAC1 = HDAC1 (Homo sapiens (Human), UniProt Q13547); experiment: HDAC in vitro enzymatic assay (fluorescence); conditions: read-out: IC50 HDAC1; selectivity profiling; top concentration 200 μM
# HDAC2 = HDAC2 (Homo sapiens (Human), UniProt Q92769); experiment: HDAC in vitro enzymatic assay (fluorescence); conditions: read-out: IC50 HDAC2; selectivity profiling; top concentration 200 μM
# HDAC3 = HDAC3 (Homo sapiens (Human), UniProt O15379); experiment: HDAC in vitro enzymatic assay (fluorescence); conditions: read-out: IC50 HDAC3; selectivity profiling; top concentration 200 μM
# HDAC8 = HDAC8 (Homo sapiens (Human), UniProt Q9BY41); experiment: HDAC in vitro enzymatic assay (fluorescence); conditions: read-out: IC50 HDAC8; selectivity profiling; top concentration 200 μM
# AMO-1 (plasmacytom) = experiment: CellTiter-Blue cell viability assay; format: cell-based; conditions: Homo sapiens, AMO1; AMO-1 cells, 72 hours of treatment; read-out: IC50 AMO-1 (cell viability)
# Procedure: (§1) Method for Measurement of Cell Viability
# (§2) The CellTiter-Blue® Cell Viability Assay (Promega) provides a homogeneous, fluorometric method for estimating the number of viable cells present in multi-well plates. The assay uses the indicator dye resazurin to measure the metabolic capacity of cells. Viable cells retain the ability to reduce resazurin into resorufin, which is highly fluorescent.
# (§3) Stock solutions (10 mM in DMSO) of compounds were serially diluted 1:2 in 11 concentrations. 50 nL/well (10 mM compound stock in DMSO) was acoustically dispensed in 384-well assay plates with an acoustic dispenser (EDC Biosystems ATS-100AV). Final starting concentration in the assay was 20 μM (0.2% DMSO) for test compounds. […] After 72 hours, Celltiter Blue reagent (Promega #G8081) was diluted 1:10 with PBS and then added to wells (5 μL/well). The plates were incubated for 2 hours following addition of reagent. […] Results were calculated as % cell viability compared to background (cells treated with 0.2% DMSO).
# [1] = test system: PBMC (peripheral blood mononuclear cells from healthy donors); experiment: CellTiter-Blue cell viability assay; format: cell-based; conditions: healthy PBMC, 72 hours of treatment; read-out: IC50 healthy PBMC (cell viability)
# Procedure: as §1, §2, §3
# U266 (multiple myelom) = experiment: CellTiter-Blue cell viability assay; format: cell-based; conditions: Homo sapiens, U-266; U266 cells, 72 hours of treatment; read-out: IC50 U266 (cell viability)
# Procedure: as §1, §2, §3
# [2] = read-out: IC50 values for inhibition of HDAC6
# [3] = selectivity profiling, read-out: IC50 HDAC6
# HDAC2, sequence (Q92769 whole entry): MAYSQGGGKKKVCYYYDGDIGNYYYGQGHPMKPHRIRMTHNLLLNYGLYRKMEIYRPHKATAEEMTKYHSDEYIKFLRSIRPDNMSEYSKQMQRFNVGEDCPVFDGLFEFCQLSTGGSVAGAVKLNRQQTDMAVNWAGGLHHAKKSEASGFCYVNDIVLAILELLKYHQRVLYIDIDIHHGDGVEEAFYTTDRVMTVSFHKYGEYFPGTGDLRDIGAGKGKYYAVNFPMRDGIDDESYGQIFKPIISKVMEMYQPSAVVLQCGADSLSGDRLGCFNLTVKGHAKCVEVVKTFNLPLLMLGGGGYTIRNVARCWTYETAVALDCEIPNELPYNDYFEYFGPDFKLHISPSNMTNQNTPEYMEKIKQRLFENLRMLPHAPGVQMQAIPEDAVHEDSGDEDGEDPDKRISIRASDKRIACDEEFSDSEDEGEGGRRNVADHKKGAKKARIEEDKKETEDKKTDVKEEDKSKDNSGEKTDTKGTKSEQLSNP
# HDAC1, sequence (Q13547 whole entry): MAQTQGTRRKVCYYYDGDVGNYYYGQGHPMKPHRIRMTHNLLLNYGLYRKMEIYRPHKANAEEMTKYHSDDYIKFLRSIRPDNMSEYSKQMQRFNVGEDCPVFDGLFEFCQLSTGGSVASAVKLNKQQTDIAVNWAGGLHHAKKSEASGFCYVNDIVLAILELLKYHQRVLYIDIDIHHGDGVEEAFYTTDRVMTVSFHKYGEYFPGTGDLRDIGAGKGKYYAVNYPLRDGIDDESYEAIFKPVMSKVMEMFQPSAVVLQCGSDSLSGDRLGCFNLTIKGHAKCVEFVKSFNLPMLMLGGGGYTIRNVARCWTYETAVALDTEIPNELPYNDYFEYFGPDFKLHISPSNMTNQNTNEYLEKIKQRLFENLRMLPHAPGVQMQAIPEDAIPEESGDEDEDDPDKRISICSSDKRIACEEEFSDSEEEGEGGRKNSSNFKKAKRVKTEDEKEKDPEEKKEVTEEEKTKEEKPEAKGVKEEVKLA
# HDAC3, sequence (O15379 whole entry): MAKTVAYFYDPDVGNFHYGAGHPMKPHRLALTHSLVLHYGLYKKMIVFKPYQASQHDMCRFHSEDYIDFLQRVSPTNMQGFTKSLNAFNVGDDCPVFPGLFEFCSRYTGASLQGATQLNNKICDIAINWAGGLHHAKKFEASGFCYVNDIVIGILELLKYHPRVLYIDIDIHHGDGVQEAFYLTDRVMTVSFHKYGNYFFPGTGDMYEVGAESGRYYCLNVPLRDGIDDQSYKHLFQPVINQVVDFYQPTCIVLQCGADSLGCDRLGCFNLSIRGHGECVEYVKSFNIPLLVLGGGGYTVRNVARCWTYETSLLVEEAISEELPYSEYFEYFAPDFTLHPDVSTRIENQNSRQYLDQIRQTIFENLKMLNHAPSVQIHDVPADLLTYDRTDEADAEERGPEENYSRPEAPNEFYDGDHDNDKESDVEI
# HDAC3, sequence (Q9Y618 395-489 partner): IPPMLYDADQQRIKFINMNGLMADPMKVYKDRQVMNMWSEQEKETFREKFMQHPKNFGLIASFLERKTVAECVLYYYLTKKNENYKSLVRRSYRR
# HDAC8, sequence (Q9BY41 whole entry): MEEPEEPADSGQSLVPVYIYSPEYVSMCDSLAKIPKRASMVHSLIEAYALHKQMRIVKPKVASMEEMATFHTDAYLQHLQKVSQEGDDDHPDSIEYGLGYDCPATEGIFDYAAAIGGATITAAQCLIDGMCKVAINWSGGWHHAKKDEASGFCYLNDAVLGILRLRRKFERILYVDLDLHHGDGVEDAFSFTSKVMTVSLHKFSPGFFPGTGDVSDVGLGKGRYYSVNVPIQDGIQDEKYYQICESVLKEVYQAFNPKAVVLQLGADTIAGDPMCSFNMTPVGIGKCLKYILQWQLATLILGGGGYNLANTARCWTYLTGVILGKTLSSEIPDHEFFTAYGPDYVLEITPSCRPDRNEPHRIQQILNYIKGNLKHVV
structure (smiles),measurement,setting,value
"C#Cc1ccc(-c2nc3ccc(C(=O)NO)cc3[nH]2)cc1 [Example 80, 2-(4-ethynylphenyl)-N-hydroxy-1H-benzimidazole-6-carboxamide]",IC50,HDAC6; [2],0.019 µM
"CCN(CC)CCOc1ccc(-c2nc3ccc(C(=O)NO)cc3[nH]2)cc1 [Example 125, 2-{4-[2-(diethylamino)ethoxy]phenyl}-N-hydroxy-1H-benzimidazole-6-carboxamide]",IC50,HDAC6; [2],0.014 µM
"CS(=O)(=O)Nc1ccc(-c2ccc(-c3nc4ccc(C(=O)NO)cc4[nH]3)cc2)cc1 [Example 204, N-hydroxy-2-{4′-[(methylsulfonyl)amino]biphenyl-4-yl}-1H-benzimidazole-6-carboxamide]",IC50,HDAC6; [2],0.0072 µM
"COc1cccc(-c2nc3ccc(C(=O)NO)cc3[nH]2)c1O [Example 85, N-hydroxy-2-(2-hydroxy-3-methoxyphenyl)-1H-benzimidazole-6-carboxamide]",IC50,HDAC6; [2],0.013 µM
"COc1ccc(-c2ccc(-c3nc4ccc(C(=O)NO)cc4[nH]3)o2)cc1OC [Example 174, 2-[5-(3,4-dimethoxyphenyl)furan-2-yl]-N-hydroxy-1H-benzimidazole-6-carboxamide]",IC50,HDAC6; [2],0.0047 µM
"Cn1c(-c2nc3ccc(C(=O)NO)cc3[nH]2)cc2ccccc21 [Example 112, N-hydroxy-2-(1-methyl-1H-indol-2-yl)-1H-benzimidazole-6-carboxamide]",IC50,HDAC6; [2],0.015 µM
"O=C(NO)c1ccc2nc(-c3ccc4c(c3)OCCO4)[nH]c2c1 [Example 11, 2-(2,3-dihydro-1,4-benzodioxin-6-yl)-N-hydroxy-1H-benzimidazole-6-carboxamide]",IC50,HDAC6; [2],0.11 µM
"O=C(NO)c1ccc2nc(-c3cccc(OCCOc4ccccc4)c3)[nH]c2c1 [Example 134, N-hydroxy-2-[3-(2-phenoxyethoxy)phenyl]-1H-benzimidazole-6-carboxamide]",IC50,HDAC6; [2],0.018 µM
"O=C(NO)c1ccc2nc(-c3ccc(-c4ccccc4F)s3)[nH]c2c1 [Example 176, 2-[5-(2-fluorophenyl)thiophen-2-yl]-N-hydroxy-1H-benzimidazole-6-carboxamide]",IC50,HDAC6; [2],0.0029 µM
"CCc1ccc(-c2nc3ccc(C(=O)NO)cc3[nH]2)cc1 [Example 109, 2-(4-ethylphenyl)-N-hydroxy-1H-benzimidazole-6-carboxamide]",IC50,HDAC6; [3],0.046 µM
same,IC50,HDAC6; [2],0.046 µM
same,IC50,HDAC1,6.5 µM
same,IC50,HDAC2,165 µM
same,IC50,HDAC3,2.2 µM
same,IC50,HDAC8,1.2 µM
"O=C(NO)c1ccc2nc(-c3ccc(-c4cccc(CN5CCCCC5)c4)cc3)[nH]c2c1 [Example 186, N-hydroxy-2-[3′-(piperidin-1-ylmethyl)biphenyl-4-yl]-1H-benzimidazole-6-carboxamide trifluoroacetate]",IC50,HDAC6; [2],0.0041 µM
"O=C(NO)c1ccc2nc(-c3ccc4c(c3)CCO4)[nH]c2c1 [Example 96, 2-(2,3-dihydro-1-benzofuran-5-yl)-N-hydroxy-1H-benzimidazole-6-carboxamide]",IC50,HDAC6; [3],0.0052 µM
same,IC50,HDAC6; [2],0.0052 µM
same,IC50,HDAC1,5 µM
same,IC50,HDAC2,58 µM
same,IC50,HDAC3,1.3 µM
same,IC50,HDAC8,0.22 µM
"CC(C)Oc1ccc(-c2nc3ccc(C(=O)NO)cc3[nH]2)cc1 [Example 97, N-hydroxy-2-[4-(1-methylethoxy)phenyl]-1H-benzimidazole-6-carboxamide]",IC50,HDAC6; [3],0.012 µM
same,IC50,HDAC6; [2],0.012 µM
same,IC50,HDAC1,5.7 µM
same,IC50,HDAC2,33 µM
same,IC50,HDAC3,2.4 µM
same,IC50,HDAC8,0.26 µM
"O=C(NO)c1ccc2nc(-c3ccc(-c4ccccc4F)cc3)[nH]c2c1 [Example 167, 2-(2′-fluorobiphenyl-4-yl)-N-hydroxy-1H-benzimidazole-6-carboxamide]",IC50,HDAC6; [2],0.019 µM
same,IC50,AMO-1 (plasmacytom),0.14 µM
same,IC50,[1],> 20 µM
same,IC50,U266 (multiple myelom),0.16 µM
"O=C(NO)c1ccc2nc(-c3ccc(-c4ccc(CN5CCCC5)cc4)cc3)[nH]c2c1 [Example 197, N-hydroxy-2-[4′-(pyrrolidin-1-ylmethyl)biphenyl-4-yl]-1H-benzimidazole-6-carboxamide trifluoroacetate]",IC50,HDAC6; [2],0.0036 µM
"C[C@@H]1CN(Cc2ccc(-c3ccc(-c4nc5ccc(C(=O)NO)cc5[nH]4)cc3)cc2)C[C@H](C)O1 [Example 201, 2-(4′-{cis)-2,6-dimethylmorpholin-4-yl]methyl}biphenyl-4-yl)-N-hydroxy-1H-benzimidazole-6-carboxamide trifluoroacetate]",IC50,HDAC6; [2],0.013 µM
"O=C(NO)c1ccc2nc(-c3ccc(-c4ccccc4)s3)[nH]c2c1 [Example 179, N-hydroxy-2-(5-phenylthiophen-2-yl)-1H-benzimidazole-6-carboxamide]",IC50,HDAC6; [2],0.0031 µM
"O=C(NO)c1ccc2nc(-c3ccc(-c4ccccc4)c(F)c3)[nH]c2c1 [Example 180, 2-(2-fluorobiphenyl-4-yl)-N-hydroxy-1H-benzimidazole-6-carboxamide]",IC50,AMO-1 (plasmacytom),0.42 µM
same,IC50,[1],> 20 µM
same,IC50,U266 (multiple myelom),0.56 µM
"COc1ccc(Oc2cccc(-c3nc4ccc(C(=O)NO)cc4[nH]3)c2)cc1 [Example 113, N-hydroxy-2-[3-(4-methoxyphenoxy)phenyl]-1H-benzimidazole-6-carboxamide]",IC50,HDAC6; [2],0.0066 µM
"CN(C)C(=O)c1cccc(-c2ccc(-c3nc4ccc(C(=O)NO)cc4[nH]3)cc2)c1 [Example 195, 2-[3′-(dimethylcarbamoyl)biphenyl-4-yl]-N-hydroxy-1H-benzimidazole-6-carboxamide]",IC50,HDAC6; [2],0.024 µM
"O=C(NO)c1ccc2nc(-c3cccs3)[nH]c2c1 [Example 98, N-hydroxy-2-thiophen-2-yl-1H-benzimidazole-6-carboxamide]",IC50,HDAC6; [3],0.007 µM
same,IC50,HDAC6; [2],0.007 µM
same,IC50,HDAC1,4.4 µM
same,IC50,HDAC2,24 µM
same,IC50,HDAC3,1.9 µM
same,IC50,HDAC8,0.29 µM
"CN1CCN(Cc2ccc(-c3nc4ccc(C(=O)NO)cc4[nH]3)cc2)CC1 [Example 207, N-hydroxy-2-{4-[(4-methylpiperazin-1-yl)methyl]phenyl}-1H-benzimidazole-6-carboxamide]",IC50,HDAC6; [3],0.007 µM
same,IC50,HDAC6; [2],0.007 µM
same,IC50,HDAC1,0.7 µM
same,IC50,HDAC2,7.8 µM
same,IC50,HDAC3,0.25 µM
same,IC50,HDAC8,1.8 µM
"O=C(NO)c1ccc2nc(-c3ccccc3-c3ccccc3)[nH]c2c1 [Example 119, 2-biphenyl-2-yl-N-hydroxy-1H-benzimidazole-6-carboxamide]",IC50,HDAC6; [3],0.014 µM
same,IC50,HDAC6; [2],0.014 µM
same,IC50,HDAC1,4 µM
same,IC50,HDAC2,29 µM
same,IC50,HDAC3,2.8 µM
same,IC50,HDAC8,0.71 µM
"COc1c(C)cc(-c2nc3cc(C(=O)NO)ccc3n2C)cc1C [Example 228, N-hydroxy-2-(4-methoxy-3,5-dimethylphenyl)-1-methyl-1H-benzimidazole-5-carboxamide]",IC50,HDAC6; [3],0.0035 µM
same,IC50,HDAC6; [2],0.0035 µM
same,IC50,HDAC1,2 µM
same,IC50,HDAC2,20 µM
same,IC50,HDAC3,0.216 µM
same,IC50,HDAC8,0.1 µM
"O=C(NO)c1ccc2nc(-c3ccnc4ccccc34)[nH]c2c1 [Example 66, N-hydroxy-2-quinolin-4-yl-1H-benzimidazole-6-carboxamide trifluoroacetate]",IC50,HDAC6; [2],0.014 µM
"COCCCNCc1ccc(-c2ccc(-c3nc4ccc(C(=O)NO)cc4[nH]3)cc2)cc1 [Example 191, N-hydroxy-2-(4′-{[(3-methoxypropyl)amino]methyl}biphenyl-4-yl)-1H-benzimidazole-6-carboxamide trifluoroacetate]",IC50,HDAC6; [2],0.018 µM
"O=C(NO)c1ccc2nc(-c3ccc(-c4ccc(/C=N/O)cc4)cc3)[nH]c2c1 [Example 193, N-hydroxy-2-{4′-[(E)-(hydroxyimino)methyl]biphenyl-4-yl}-1H-benzimidazole-6-carboxamide]",IC50,HDAC6; [2],0.011 µM
